Source: article PMC6286779, “HLA-A2-Restricted Epitopes Identified from MTA1 Could Elicit Antigen-Specific Cytotoxic T Lymphocyte Response” (Journal of Immunology Research, 2018)
No end group written: not given here.

What was measured:
[1] = molecular target: T1, peptide/HLA-A*0201 complexes (Homo sapiens, UniProt P04439, D140Y/D185E/D98H/E176V/E277Q/G131W/G231S/I119V/I121R/I166T/I218V/L300P/L318F/N151K/N90K/P208A/P217A/Q86G/Q94H/R138H/R169H/T345S); assay: T2 stabilization (stability) assay; format: binding; conditions: T2 cells, peptide 50 μg/ml, 18 h, then brefeldin A 10 μg/ml 1 h; read at 0, 2, 4, 6 h, 37°C; flow cytometry
T1 construct: endogenous in cells; host or cells: T2 lymphoblastic cell line (TAP-deficient)
Method: For the stability assay, each of the selected peptides (50 μg/ml) was incubated with T2 cells (1 × 10^6 cells/ml) for 18 h in serum-free RPMI 1640 medium supplemented with 3 μg/ml β2-M at 37°C. Thereafter, cells were washed twice and incubated with brefeldin A (10 μg/ml, eBiosciences, USA) for 1 h. Subsequently, the cells were washed and incubated for 0, 2, 4, and 6 h at 37°C. Cells were washed twice, stained with BB7.2 for 0.5 h at 4°C. Finally, cells were collected, washed, and analyzed by flow cytometry. Dissociation complex 50 (DC50) was defined as time (t) required for the loss of 50% of the HLA-A^∗0201/peptide complexes stabilized at 0 h.

[2] = system: MDA-MB-231 (HLA-A2+, MTA1+); assay: LDH cytotoxicity assay, CTLs induced in vitro; format: cell-based, human; conditions: CTLs induced by peptide 10 μg/ml from donor no. 6; E/T 50 : 1; LDH release, 4 h; n = 3
Method: (§1) CTL induction in vitro was conducted according to the procedures previously described. Briefly, PBMCs from eight HLA-A^∗02^+ healthy donors were isolated using Ficoll-Paque density gradient centrifugation and resuspended in RPMI 1640 medium supplemented with 10% FBS. Then, PBMCs were stimulated three times (once a week) with the indicated peptides (10 μg/ml) or protein MTA1(1–283) (at final concentrations of 0, 1, 10, 30, and 50 μg/ml) for 21 days. Human recombinant cytokine interleukin-2 (IL-2) (50 U/ml) was added on day 3 and 1 day after each stimulation. The cytotoxic assay (lactate dehydrogenase (LDH) assay) and IFN-γ secretion enzyme-linked immunospot (ELISPOT) assay were performed on day 21.
(§2) Cytotoxic activity of induced T cells was tested based on the quantitation of LDH release using the nonradioactive cytotoxicity assay kit (Promega, USA) at the gradient E/T ratio [29, 31]. Target cells which expressed different levels of MTA1 or peptide-pulsed T2 cells were used as target cells. The anti-human HLA-A2 antibody (BB7.2) was added 30 min before adding effector cells to determine the HLA restriction. Target cells (5 × 10^3/well) were cocultured with the effector cells at 37°C for 4 h. The percentage of specific lysis of the target cells was determined using the equation: percentage of specific lysis = [(experimental release − effector spontaneous release − target spontaneous release)/(target maximum release − target spontaneous release)] × 100.

MCF-7 (HLA-A2+, MTA1+) = assay: LDH cytotoxicity assay, CTLs induced in vitro; format: cell-based, human; conditions: peptide-induced CTLs from healthy donors, E/T 50 : 1
Method: as §1, §2

SW620 (HLA-A2+, MTA1+) = assay: LDH cytotoxicity assay, CTLs induced in vitro; format: cell-based, human; conditions: CTLs induced by peptide 10 μg/ml from donor no. 6; E/T 50 : 1; LDH release, 4 h; n = 3
Method: as §1, §2

HT-29 (HLA-A2−, MTA1+) = assay: LDH cytotoxicity assay, CTLs induced in vitro; format: cell-based, human; conditions: peptide-induced CTLs, HLA-A2-negative control target
Method: as §1, §2

[3] = system: SW620 incubated with an anti-human HLA-A2 antibody; assay: LDH cytotoxicity assay, CTLs induced in vitro, HLA-A2 blocked; format: cell-based; conditions: peptide-induced CTLs, BB7.2 added 30 min before effectors
Method: as §1, §2

[4] = system: PBMCs from HLA-A*02+ healthy donors; assay: IFN-γ ELISPOT of CTLs induced in vitro; format: cell-based, human; conditions: PBMCs of six donors stimulated with peptide 10 μg/ml three times, day 21; stimulators peptide-pulsed T2 cells (50 μg/ml); 1 × 10^5 effectors; mean, n = 6
Method: as §1
The ELISPOT assay was performed using a commercial kit (Dakewe, China) according to the procedures previously described. Briefly, T2 cells incubated with/without candidate peptide (50 μg/ml) were used as the stimulating cells, effector cells (1 × 10^5) and stimulator cells (peptide-pulsed T2 cells or T2 cells only, 1 × 10^5) were seeded into the 96-well plate precoated with an anti-human (or anti-mouse) IFN-γ antibody. After incubation at 37°C for 18 h, cells were removed, and plates were processed for analysis as instructed. The spot number was determined automatically using a computer-assisted spot analyzer (Dakewe, China).

HLA-A*0201 molecules = HLA-A*0201 molecules (Homo sapiens, UniProt P04439, D140Y/D185E/D98H/E176V/E277Q/G131W/G231S/I119V/I121R/I166T/I218V/L300P/L318F/N151K/N90K/P208A/P217A/Q86G/Q94H/R138H/R169H/T345S); assay: T2 binding assay; conditions: T2 cells 1 × 10^6 cells/ml, peptide 50 μg/ml, 3 μg/ml β2-M, serum-free RPMI 1640, 18 h, 37°C; BB7.2 staining, flow cytometry; FI > 1.5 = high affinity
Method: The binding affinity of these peptides to HLA-A^∗0201 was evaluated according to our previous study. Briefly, T2 cells (1 × 10^6 cells/ml) were incubated with each peptide (50 μg/ml) and 3 μg/ml human β2-microglobulin (β2-M, Merck, Germany) in serum-free RPMI 1640 medium for 18 h at 37°C in a humidified atmosphere of 5% CO2. Then cells were washed twice and incubated with the anti-human HLA-A2 PE-Cyanine7 mAb, BB7.2 (eBioscience, USA) for 0.5 h at 4°C. Finally, cells were collected, washed, and analyzed using flow cytometry (FACSCalibur, Becton Dickinson, USA). The fluorescence index (FI) calculation was performed as follows: FI = [(mean fluorescence intensity (MFI) of the given peptide − background) − (MFI of the PBS control group − background)]/[(MFI of the PBS control group − background)]. The MFI value of cells untreated with peptides and antibodies was employed as background. Peptides with an FI factor of more than 1.5 were classed as high-affinity candidates.

[5] = system: Het-1A (HLA-A2+, MTA1low); assay: LDH cytotoxicity assay, CTLs induced in vitro; format: cell-based, human; conditions: peptide-induced CD8+ T cells, E/T 50 : 1
Method: as §1, §2

[6] = molecular target: HLA-A*0201 molecule on T2 cells (human (endogenous in T2) | human); assay: flow cytometry on cells; stability assay: T2 cells loaded with peptide (50 μg/ml) and 3 μg/ml β2-M for 18 h at 37°C, brefeldin A (10 μg/ml) 1 h, then 0, 2, 4 and 6 h at 37°C; stained with BB7.2; DC50 = time for the loss of 50% of the HLA-A*0201/peptide complexes stabilized at 0 h
[7] = molecular target: HLA-A*0201 molecule on T2 cells (human (endogenous in T2) | human); assay: flow cytometry on cells; T2 binding assay: T2 cells (1 x 10^6 cells/ml) with peptide (50 μg/ml) and 3 μg/ml human β2-M in serum-free RPMI 1640, 18 h, 37°C; surface HLA-A2 stained with BB7.2 PE-Cyanine7; fluorescence index (FI); FI > 1.5 classed as high affinity

Row | Molecule | FI (fluorescence index) (HLA-A*0201 molecules) | DC50 [6] [h] | FI (fluorescence index) [7] | also measured
1 | HBcAg 18-27 peptide |  | > 6 |  | 
2 | ILIGETIKI [COX-2_321-329, reference compound] | 1.905 |  |  | DC50: time required for the loss of 50% of the HLA-A*0201/peptide complexes stabilized at 0 h [1]: >6 h
3 | ALADKHATL [MTA1 peptide P57] |  | > 6 | 1.56 | 
4 | FLSRQLESL [MTA1 peptide P109] |  | > 6 | 2.61 | 
5 | YLIRRIEEL [MTA1 peptide P22] |  | > 2 | 2.08 | 
6 | ILIGETIKI (not fully specified) [cyclooxygenase-2 (COX-2) 321-329 peptide] |  | > 6 | 1.91 | 
7 | YQADITDLL [MTA1 peptide P173] |  |  | 0.22 | 
8 | TLLNETESL [MTA1 peptide P129] |  | > 6 | 1.28 | 

Further lines, with some results ahead:

Row | FI (fluorescence index) (HLA-A*0201 molecules) | DC50 [6] [h] | FI (fluorescence index) [7] | Molecule | also measured
9 | 1.56 |  |  | ALADKHATL [Peptide P57] | DC50: time required for the loss of 50% of the HLA-A*0201/peptide complexes stabilized at 0 h [1]: >6 h; lysis rate of MDA-MB-231 cells [2]: 30.5%; rate of MCF-7 cell lysis (MCF-7 (HLA-A2+, MTA1+)): 17.6%; lysis rate of SW620 cells (SW620 (HLA-A2+, MTA1+)): 45.8%; lysis of HT-29 cells (HT-29 (HLA-A2−, MTA1+)): did not lyse; lysis of SW620 cells incubated with an HLA-A2 blocking antibody [3]: did not lyse; IFN-γ ELISPOT mean spot intensities [4]: 543
10 | 2.61 |  |  | FLSRQLESL [Peptide P109] | DC50: time required for the loss of 50% of the HLA-A*0201/peptide complexes stabilized at 0 h [1]: >6 h; lysis rate of MDA-MB-231 cells [2]: 32.2%; rate of Het-1A cell lysis [5]: 11.9%; rate of MCF-7 cell lysis (MCF-7 (HLA-A2+, MTA1+)): 23.8%; lysis rate of SW620 cells (SW620 (HLA-A2+, MTA1+)): 65.5%; lysis of HT-29 cells (HT-29 (HLA-A2−, MTA1+)): did not lyse; lysis of SW620 cells incubated with an HLA-A2 blocking antibody [3]: did not lyse; IFN-γ ELISPOT mean spot intensities [4]: 453
11 | 0.22 |  |  | YQADITDLL [Peptide P173] | 
